Holding throughout (assay type): in vivo, mouse
Assay [1] relates to EP4 receptor on aged myofibers. Nature of the assay: SW treatment of aged EP4f/f mice with MCK-Cre ablation of EP4 in myofibers. The settings on record: loss of EP4 expression in myofibers, SW one month. From the text: We performed all experiments and protocols in compliance with the institutional guidelines of Stanford University and Administrative Panel on Laboratory Animal Care (APLAC). Middle aged (18-20 mo.) and aged (>24 mo.) mice C57BL/6 were obtained the US National Institute on Aging (NIA) for aged muscle studies, and young (2-4 mo.) wild-type C57BL/6 mice from Jackson Laboratory. INK-ATTAC mice were generated as previously described (1). INK-ATTAC healthspan assessments. INK-ATTAC mice were crossed onto the C57BL6/J genetic background and maintained in specific-pathogen free housing on a 12-hour dark/light cycle for study duration. At 12 months of age, male mice were either utilized for baseline healthspan assessments and terminal muscle harvest or randomized to receive twice-weekly vehicle or AP20187 (2 mg/kg intraperitoneal injection; B/B homodimerizer, Clontech) until assessment and sacrifice at 28 months of age (2). […] Time and distance to exhaustion was performed as previously described (4) for SW-treated mice and their controls. […]
The peak isometric torque (N·mm) of the ankle plantarflexors was assessed as previously described (21, 22). […]

A further assay has as its system pFOXO. The assay is described as follows: Immunoblots of muscle lysates from aged vehicle and SW treated mice. The settings on record: aged muscles, SW vs vehicle. How it is done: Total lysates were prepared using lysis buffer (50 mM Tris-HCl pH 7.5, 150 mM NaCl, 4 mM CaCl, 1.5% Triton X-100, protease inhibitors and micrococcal nuclease). For tissue extracts, lysates were homogenized a FastPrep 24 homogenizer (MP Biomedicals) for 40 seconds at a speed of 6 m/s. We used the following antibodies: 15-PGDH (Santa Cruz Biotechnology, cat # sc-271418); phospho-AKT (Ser 473) (Cell Signaling cat #4060), AKT (Cell signaling cat #2920); phospho-FoxO1 (Thr24)/FoxO3a (Thr32) Antibody (Cell Signaling cat #9464T); Foxo3a (Cell Signaling cat #2497); phospho-CREB (Ser133) (Cell Signaling cat #9198S); phospho-S6 ribosomal protein (Ser235/236) (Cell Signaling cat#4858); SMC1 (Bethyl Laboratories cat# A300-055A-T). We used HRP conjugated secondary antibodies and developed by incubating the membranes with ECL Western Blotting Substrate (Nacalai USA) and imaging using the ChemiDoc Imaging System (BioRad).
On the technique in general: Immunoblotting shows a protein as a band on a membrane.

In assay [2] the test system is aged muscle transcriptome. The assay is described as follows: RNA sequencing of vehicle and SW treated aged muscles. The settings on record: SW 1 month. From the text:
For RNA-seq, RNA was isolated from muscle lysates using Trizol reagent (Thermoscientific) and purified using Qiagen RNAEasy kit from. Libraries were constructed from RNA with the TruSEQ RNA Library Preparation Kit v2 (Illumina) and sequenced to 30-40×10^6×75-bp reads per sample on a NextSeq 550 from the Stanford Functional Genomics Facility.
For the RNA-Seq analysis, the sequences were aligned against the Mus musculus genome (mm9) using STAR (16). RSEM was used for calling transcripts and calculating transcripts per million (TPM) values as well as total counts (17). A counts matrix containing the number of counts for each gene and each sample was obtained. This matrix was analyzed by DESeq2 to calculate statistical analysis of significance of genes between samples (18). […] Heatmaps were generated on normalized counts and plotted on Z-score across rows using Seaborn data visualization library in python. The data reported in this paper have been deposited in the Gene Expression Omnibus (GEO) database GSE149924.

Entries after “also recorded” stand apart in the source; their conditions may differ.

For `CCCC[S+]([O-])c1sc2nc(-c3cccs3)cc(-c3ccccc3)c2c1N` (centres unmarked) [SW033291, 2-(butylsulfinyl)-4-phenyl-6-(thiophen-2-yl)thieno[2,3-b]pyridin-3-amine], in assay [1], the “beneficial effect on muscle mass” value is “abrogated” and the “beneficial effect on muscle strength” value is recorded as “abrogated”. For the same molecule, in the assay on pFOXO, the pFOXO entry was “increased”. Further, in assay [2], the Hdac4 expression result is on record as “diminished”; the “components of mitochondria complexes I, II, IV and V of the electron transport chain” value was “markedly increased”; the “members of ubiquitin signaling pathways” value was “downregulated”; the “mitochondrial pathways (KEGG/GO enrichment of upregulated genes)” value is given as “strong enrichment”. For the same molecule, in assay [2] (listed as SW), the “expression of TGF-beta pathway genes (Mstn, Tgfb2, Acvr2a, Smad3)” value was “decreased; also recorded: markedly reduced”.

For the origin of these results see patent US20220304992A1, “METHODS OF REJUVENATING AGED TISSUE BY INHIBITING 15-HYDROXYPROSTAGLANDIN DEHYDROGENASE (15-PGDH)” (The Board of Trustees of the Leland Stanford Junior …, priority 2019, published 2022).
